Columns and labels:
[1] = Cytotoxicity assay (CellTiter-Glo); format: cell-based; details: human, toxicity to the cells, 72 h incubation, CellTiter-Glo cell viability
Protocol: (§1) Further to the above Examples, representative compounds, prepared according to the examples were tested for potency in an HCV replicon assay (Genotype 1b) for activity against the virus (EC50) and toxicity to the cells (CC50).
(§2) A luciferase-reporter genotype 1b subgenomic replicon cell line, and a genotype 1a full-length replicon cell line were obtained from Apath, LLC, Brooklyn, N.Y.: All cell lines were passaged twice a week by splitting 4 or 6 fold. Cells were maintained in DMEM-high glucose medium (HyClone, Logan, Utah) supplemented with 9% FBS (HyClone), 2 mM glutamine (Invitrogen, Carlsbad, Calif.), 100 U/mL PenStrep (Invitrogen). Media also contained 0.25 mg/mL of the antibiotic G-418 to maintain stable expression of the replicon (Invitrogen). Incubation was performed at 37° C. in 5% CO2 atmosphere. Replicon cell lines were used until they accumulated 15-to-18 passages, after which cells were restarted from the frozen stock. Seeding cell counts were routinely determined using an automatic Cedex HiRes cell counter (Flownomics Analytical Instruments, Madison, Wis.) or manually using INCYTO C—Chip™ Disposable Hemacytometers (Fisher Scientific, Pittsburgh, Pa.).
The cell cytotoxicity assay data was obtained as described below:
Cells were seeded into 96-well plates at a density of 2×10^4 cells per well. 24 h after cell plating, 11 serial 2× compound dilutions, starting with 100 μM, were applied to the testing plates (3 repeats per compound dilution). Each testing plate was run with a “no-compound” control. Incubation with compounds was continued at 37° C. in a CO2 incubator for 72 h. To determine cell viability, the CellTiter-Glo® assay (Promega, Madison, Wis.) was performed according to the manufacturer's protocol. The compound concentration resulting in 50% luminescent signal was reported as the CC50 concentration.

[2] = tested on: HCV replicon (Genotype 1b); experiment: Luciferase genotype 1b replicon potency assay; format: cell-based; details: Hepatitis C virus, Huh-7; luciferase-reporter genotype 1b subgenomic replicon cell line (Huh7); Renilla luciferase reporter activity
Protocol: as §1
Huh7 Replicon Cell Lines and Cell Culture Conditions:
as §2
The anti-HCV assays were done accordingly:
Luciferase Genotype 1b Replicon Potency Assay.
Replicon cells were seeded into white 96-well plates (Nunc/VWR) at a density of 2×10^4 cells/well in medium without G-418. A Stacker Multidrop Liquid Dispenser (MTX Lab Systems, Vienna, Va.) was employed to ensure uniform and fast cell seeding into multiple plates. 18-24 h after cell plating, inhibitors were added and cells were incubated for additional 24, 48, or 72 h (as indicated). Compounds were tested in triplicates and quadruplicates at 3× or 4× serial dilutions over a range of 0.0001-to-10 μM concentrations. HCV replication was monitored by Renilla luciferase reporter activity assay using Renilla luciferase reporter (Promega, Madison, Wis.) and a Veritas Luminometer (Turner Biosystems, Sunnyvale, Calif.). 50% and 90% inhibitory concentration (IC50 and IC90) values were calculated as the concentration of compound that results correspondingly in 50% and 90% decreases in the reporter expression as compared to untreated cells. The values were determined by non-linear regression (four-parameter sigmoidal curve fitting) analysis.

[3] = Huh7 HCV genotype 1b replicon cells

SMILES	CC50 at 72 h [1, 3] [µM]	IC50 [2] [µM]	CC50 at 72 h [1] [µM]
COc1nc(N)nc2c1nc(Cl)n2[C@@H]1O[C@H](CO)[C@@H](O)[C@@]1(C)O [Example 6, (2R,3R,4R,5R)-2-(2-Amino-8-chloro-6-methoxy-9H-purin-9-yl)-5-(hydroxymethyl)-3-methyltetrahydrofuran-3,4-diol]	> 100	> 100	–
COc1nc(N)nc2c1nc(I)n2[C@@H]1O[C@H](COP(=O)(N[C@@H](C)C(=O)OCC(C)(C)C)Oc2cccc3ccccc23)[C@@H](O)[C@@]1(C)O (stereo partly drawn) [Example 12, (2S)-Neopentyl 2-((((2R,3R,4R,5R)-5-(2-Amino-8-iodo-6-methoxy-9H-purin-9-yl)-3,4-dihydroxy-4-methyltetrahydrofuran-2-yl)methoxy)(naphthalen-1-yloxy)phosphorylamino)propanoate]	–	0.02	14
COc1nc(N)nc2c1nc(I)n2[C@@H]1O[C@H](COP(=O)(N[C@@H](C)C(=O)OCc2ccccc2)Oc2cccc3ccccc23)[C@@H](O)[C@@]1(C)O (stereo partly shown) [Example 7]	–	0.031	18
CCCOC(=O)[C@H](C)NP(=O)(OC[C@H]1O[C@@H](n2c(I)nc3c(OC)nc(N)nc32)[C@](C)(O)[C@@H]1O)Oc1cccc2ccccc12 (stereo partly drawn) [Example 9, (2S)-Propyl 2-((((2R,3R,4R,5R)-5-(2-Amino-8-iodo-6-methoxy-9H-purin-9-yl)-3,4-dihydroxy-4-methyltetrahydrofuran-2-yl)methoxy)(naphthalen-1-yloxy)phosphorylamino)propanoate]	–	0.009	6
COc1nc(N)nc2c1nc(I)n2[C@@H]1O[C@H](COP(=O)(N[C@@H](C)C(=O)OCCC(C)(C)C)N[C@@H](C)C(=O)OCCC(C)(C)C)[C@@H](O)[C@@]1(C)O [Example 22, (2S,2′S)-Bis(3,3-Dimethylbutyl) 2,2′-((((2R,3R,4R,5R)-5-(2-Amino-8-iodo-6-methoxy-9H-purin-9-yl)-3,4-dihydroxy-4-methyltetrahydrofuran-2-yl)methoxy)phosphoryl)bis(azanediyl)dipropanoate]	11	0.072	–
COc1nc(N)nc2c1nc(I)n2[C@@H]1O[C@H](COP(=O)(N[C@@H](C)C(=O)OCc2ccccc2)N[C@@H](C)C(=O)OCc2ccccc2)[C@@H](O)[C@@]1(C)O [Example 21, (2S,2′S)-Benzyl 2,2′-((((2R,3R,4R,5R)-5-(2-Amino-8-iodo-6-methoxy-9H-purin-9-yl)-3,4-dihydroxy-4-methyltetrahydrofuran-2-yl)methoxy)phosphoryl)bis(azanediyl)dipropanoate]	22	0.046	–
CCCCOC(=O)[C@H](C)NP(=O)(OC[C@H]1O[C@@H](n2c(I)nc3c(OC)nc(N)nc32)[C@](C)(O)[C@@H]1O)Oc1cccc2ccccc12 (stereo partly drawn) [Example 10, (2S)-Butyl 2-((((2R,3R,4R,5R)-5-(2-Amino-8-iodo-6-methoxy-9H-purin-9-yl)-3,4-dihydroxy-4-methyltetrahydrofuran-2-yl)methoxy)(naphthalen-1-yloxy)phosphorylamino)propanoate]	–	0.011	7.9
COc1nc(N)nc2c1nc(Br)n2[C@@H]1O[C@H](COP(=O)(N[C@@H](C)C(=O)OCC(C)(C)C)Oc2cccc3ccccc23)[C@@H](O)[C@@]1(C)O (stereo partly drawn) [Example 13, (2S)-Neopentyl 2-((((2R,3R,4R,5R)-5-(2-Amino-8-bromo-6-methoxy-9H-purin-9-yl)-3,4-dihydroxy-4-methyltetrahydrofuran-2-yl)methoxy)(naphthalen-1-yloxy)phosphorylamino)propanoate]	–	15	60
COc1nc(N)nc2c1nc(I)n2[C@@H]1O[C@H](COP(=O)(N[C@@H](C)C(=O)OC2CCCCC2)N[C@@H](C)C(=O)OC2CCCCC2)[C@@H](O)[C@@]1(C)O [Example 26, (2S,2′S)-Dicyclohexyl 2,2′-((((2R,3R,4R,5R)-5-(2-Amino-8-iodo-6-methoxy-9H-purin-9-yl)-3,4-dihydroxy-4-methyltetrahydrofuran-2-yl)methoxy)phosphoryl)bis(azanediyl)dipropanoate]	54	0.13	–
COc1nc(N)nc2c1nc(I)n2[C@@H]1O[C@H](COP(=O)(N[C@@H](C)C(=O)OC2CCOCC2)Oc2cccc3ccccc23)[C@@H](O)[C@@]1(C)O (stereo partly drawn) [Example 18, (2S)-Tetrahydro-2H-pyran-4-yl 2-((((2R,3R,4R,5R)-5-(2-Amino-8-iodo-6-methoxy-9H-purin-9-yl)-3,4-dihydroxy-4-methyltetrahydrofuran-2-yl)methoxy)(naphthalen-1-yloxy)phosphorylamino)propanoate]	–	0.018	26
COc1nc(N)nc2c1nc(I)n2[C@@H]1O[C@H](COP(=O)(N[C@@H](C)C(=O)OCc2ccc(F)cc2F)Oc2cccc3ccccc23)[C@@H](O)[C@@]1(C)O (stereo partly drawn) [Example 8, (2S)-2,4-Difluorobenzyl 2-((((2R,3R,4R,5R)-5-(2-Amino-8-iodo-6-methoxy-9H-purin-9-yl)-3,4-dihydroxy-4-methyltetrahydrofuran-2-yl)methoxy)(naphthalen-1-yloxy)phosphorylamino)propanoate]	–	0.009	8.1
COc1nc(N)nc2c1nc(I)n2[C@@H]1O[C@H](COP(=O)(N[C@@H](C)C(=O)OC2CCCCC2)Oc2cccc3ccccc23)[C@@H](O)[C@@]1(C)O (stereo partly drawn) [Example 17, (2S)-Cyclohexyl 2-((((2R,3R,4R,5R)-5-(2-Amino-8-iodo-6-methoxy-9H-purin-9-yl)-3,4-dihydroxy-4-methyltetrahydrofuran-2-yl)methoxy)(naphthalen-1-yloxy)phosphorylamino)propanoate]	–	0.016	11
COc1nc(N)nc2c1nc(Br)n2[C@@H]1O[C@H](CO)[C@@H](O)[C@@]1(C)O [Example 5, (2R,3R,4R,5R)-2-(2-Amino-8-bromo-6-methoxy-9H-purin-9-yl)-5-(hydroxymethyl)-3-methyltetrahydrofuran-3,4-diol]	> 100	> 100	–
COc1nc(N)nc2c1nc(Br)n2[C@@H]1O[C@H](COP(=O)(N[C@@H](C)C(=O)OCC(C)(C)C)N[C@@H](C)C(=O)OCC(C)(C)C)[C@@H](O)[C@@]1(C)O [Example 24, (2S,2′S)-Neopentyl 2,2′-((((2R,3R,4R,5R)-5-(2-Amino-8-bromo-6-methoxy-9H-purin-9-yl)-3,4-dihydroxy-4-methyltetrahydrofuran-2-yl)methoxy)phosphoryl)bis(azanediyl)dipropanoate]	> 100	> 40	–
COc1nc(N)nc2c1nc(I)n2[C@@H]1O[C@H](COP(=O)(N[C@@H](C)C(=O)OC2CCCC2)Oc2cccc3ccccc23)[C@@H](O)[C@@]1(C)O (stereo partly drawn) [Example 16, (2S)-Cyclopentyl 2-((((2R,3R,4R,5R)-5-(2-Amino-8-iodo-6-methoxy-9H-purin-9-yl)-3,4-dihydroxy-4-methyltetrahydrofuran-2-yl)methoxy)(naphthalen-1-yloxy)phosphorylamino)propanoate]	–	0.012	13
COc1nc(N)nc2c1nc(Cl)n2[C@@H]1O[C@H](COP(=O)(N[C@@H](C)C(=O)OCC(C)(C)C)Oc2cccc3ccccc23)[C@@H](O)[C@@]1(C)O (stereo partly drawn) [Example 14, (2S)-Neopentyl 2-((((2R,3R,4R,5R)-5-(2-Amino-8-chloro-6-methoxy-9H-purin-9-yl)-3,4-dihydroxy-4-methyltetrahydrofuran-2-yl)methoxy)(naphthalen-1-yloxy)phosphorylamino)propanoate]	–	> 10	60
CCCCCOC(=O)[C@H](C)NP(=O)(OC[C@H]1O[C@@H](n2c(I)nc3c(OC)nc(N)nc32)[C@](C)(O)[C@@H]1O)Oc1cccc2ccccc12 (stereo partly drawn) [Example 11, (2S)-Pentyl 2-((((2R,3R,4R,5R)-5-(2-Amino-8-iodo-6-methoxy-9H-purin-9-yl)-3,4-dihydroxy-4-methyltetrahydrofuran-2-yl)methoxy)(naphthalen-1-yloxy)phosphorylamino)propanoate]	–	0.012	11

Source: patent US9351989B2, “Substituted purine nucleosides, phosphoroamidate and phosphorodiamidate derivatives for treatment of viral infections” (INHIBITEX, INC., priority 2010, dated 2016)
